Results as given in patent publication US20250361210A1, “3,4-DIHYDROQUINOLIN-2(1H)-ONE COMPOUND” (Kissei Pharmaceutical Co., Ltd., priority 2022, published 2025).

Target: T1, human TSHR (Homo sapiens, UniProt P16473)
T1 construct: expressed in transfected cells
Test: Antagonist activity using TSH-induced cAMP production in human TSHR-stably expressing CHO cells
Type: cell-based
Conditions: human TSH 50 ng/mL
Description: Measurement of Antagonist Activity Using TSH-Induced cAMP Production in Human TSHR-Stably Expressing CHO Cells as an Indicator
The human TSHR gene sequence (reference number NM_000369.2) was inserted into the multicloning site of pcDNA3.1(+). The constructed plasmid vector was introduced into CHO cells using the lipofection method to establish human TSHR-stably expressing CHO cells. The obtained cells were seeded at 5×10^4 cells/well in a 96-well poly-D-lysine-coated plate, and cultured in an F12 culture medium containing 10% FBS, 400 μg/mL of G418, 50 U/mL of penicillin and 50 μg/mL of streptomycin under conditions of 37° C. and 5% CO2 for 1 day. After the culture medium was removed, the cells were washed twice with 100 μL of an assay buffer solution (Hanks' Balanced Salt Solution containing 20 mM HEPES and 1 mM IBMX) per well. 30 μL of a test compound-containing assay buffer solution was added to the well and incubated at room temperature for 15 minutes. Then, 30 μL of an assay buffer solution containing human TSH (final concentration 50 ng/mL, R&D Systems, Inc.) was added, and incubated at 37° C. for 1 hour. The supernatant was removed, a Lysis and Detection Buffer 2 (Cisbio) was added, and the mixture was incubated at room temperature for 1 hour to prepare a cell lysate. According to the instruction manual of a cAMP Gs HiRange kit (Cisbio), the cell lysate, d2-labeled cAMP and anti-cAMP Europium Cryptate labeled antibodies (Cisbio) were reacted in a 384-well white microplate. Then, a fluorescence intensity ratio (measurement wavelength 665 nm/620 nm) was measured using a multi-plate reader (PHERAstar FSX, BMG LABTECH, Japan). The fluorescence intensity ratio of each sample was converted to a cAMP content using a standard curve. The cAMP content was converted as a percentage of the control value to calculate the cAMP production rate. The CAMP production rate was plotted against the test compound concentration using Prism (Graph Pad Software Inc.) to calculate the IC50 value. The IC50 of each test compound is shown in the above tables. In the tables, IC50<0.5 μM: A, 0.5 μM≤IC50<3.0 μM: B, 3.0 μM≤IC50<30 μM: C are shown.

T1 sequence (P16473 21-764): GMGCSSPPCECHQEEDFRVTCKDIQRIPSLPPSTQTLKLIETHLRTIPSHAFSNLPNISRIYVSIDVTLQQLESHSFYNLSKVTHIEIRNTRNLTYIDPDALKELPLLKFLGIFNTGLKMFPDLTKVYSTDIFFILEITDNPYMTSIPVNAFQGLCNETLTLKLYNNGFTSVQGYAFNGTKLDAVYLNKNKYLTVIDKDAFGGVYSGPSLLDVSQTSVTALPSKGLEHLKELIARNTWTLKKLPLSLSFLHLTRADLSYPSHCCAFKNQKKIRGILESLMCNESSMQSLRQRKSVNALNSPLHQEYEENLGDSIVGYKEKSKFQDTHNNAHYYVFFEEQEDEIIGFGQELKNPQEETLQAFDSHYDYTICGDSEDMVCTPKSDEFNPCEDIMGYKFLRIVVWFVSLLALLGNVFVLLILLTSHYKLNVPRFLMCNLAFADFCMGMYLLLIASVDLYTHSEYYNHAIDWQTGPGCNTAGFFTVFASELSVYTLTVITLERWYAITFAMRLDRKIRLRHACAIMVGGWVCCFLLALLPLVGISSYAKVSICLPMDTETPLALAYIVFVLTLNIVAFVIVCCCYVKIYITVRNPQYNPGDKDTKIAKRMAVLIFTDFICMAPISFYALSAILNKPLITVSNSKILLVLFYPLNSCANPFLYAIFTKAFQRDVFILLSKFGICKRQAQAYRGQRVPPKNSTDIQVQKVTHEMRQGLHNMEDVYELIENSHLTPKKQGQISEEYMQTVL

Row | Compound | IC50 [nM]
1 | CN1C(=O)[C@H](NC(N)=O)Cc2cccc(OC3CCCC3)c21 [Example 42, ((3R)-8-(cyclopentyloxy)-1-methyl-2-oxo-1,2,3,4-tetrahydroquinolin-3-yl)urea] | 500 to 3000
2 | CN1C(=O)[C@H](NC(N)=O)Cc2ccc(F)c(Oc3ccccc3C(F)F)c21 [Example 43, ((3R)-8-(2-(difluoromethyl)phenoxy)-7-fluoro-1-methyl-2-oxo-1,2,3,4-tetrahydroquinolin-3-yl)urea] | 500 to 3000
3 | CN1C(=O)[C@H](NC(N)=O)Cc2ccc(F)c(Oc3cc(F)ccc3Cl)c21 [Example 44, ((3R)-8-(2-chloro-5-fluorophenoxy)-7-fluoro-1-methyl-2-oxo-1,2,3,4-tetrahydroquinolin-3-yl)urea] | < 500
4 | Cc1ccc2c(c1Oc1ccccc1F)N(C)C(=O)[C@H](NC(N)=O)C2 [Example 45, ((3R)-8-(2-fluorophenoxy)-1,7-dimethyl-2-oxo-1,2,3,4-tetrahydroquinolin-3-yl)urea] | < 500
5 | Cc1ccc2c(c1Oc1cccc(F)c1)N(C)C(=O)[C@H](NC(N)=O)C2 [Example 46, ((3R)-8-(3-fluorophenoxy)-1,7-dimethyl-2-oxo-1,2,3,4-tetrahydroquinolin-3-yl)urea] | < 500
6 | Cc1ccccc1Oc1cccc2c1N(C)C(=O)[C@H](NC(N)=O)C2 [Example 47, ((3R)-1-methyl-8-(2-methylphenoxy)-2-oxo-1,2,3,4-tetrahydroquinolin-3-yl)urea] | < 500
7 | Cc1ccc(F)cc1Oc1cccc2c1N(C)C(=O)[C@H](NC(N)=O)C2 [Example 48, ((3R)-8-(5-fluoro-2-methylphenoxy)-1-methyl-2-oxo-1,2,3,4-tetrahydroquinolin-3-yl)urea] | < 500
8 | CN1C(=O)[C@H](NC(N)=O)Cc2ccc(C(F)(F)F)c(Oc3ccccc3F)c21 [Example 49, ((3R)-8-(2-fluorophenoxy)-1-methyl-2-oxo-7-(trifluoromethyl)-1,2,3,4-tetrahydroquinolin-3-yl)urea] | < 500
9 | Cc1ccc2c(c1Oc1cc(F)ccc1F)N(C)C(=O)[C@H](NC(N)=O)C2 [Example 50, ((3R)-8-(2,5-difluorophenoxy)-1,7-dimethyl-2-oxo-1,2,3,4-tetrahydroquinolin-3-yl)urea] | < 500
10 | CN1C(=O)[C@H](NC(N)=O)Cc2cccc(Cc3ccccc3Cl)c21 [Example 51, ((3R)-8-((2-chlorophenyl)methyl)-1-methyl-2-oxo-1,2,3,4-tetrahydroquinolin-3-yl)urea] | < 500
11 | CN1C(=O)[C@H](NC(N)=O)Cc2cccc(Cc3cc(F)ccc3Cl)c21 [Example 52] | < 500
12 | CN1C(=O)[C@H](NC(N)=O)Cc2cccc(Cc3ccccc3C(F)(F)F)c21 [Example 53, ((3R)-1-methyl-2-oxo-8-((2-(trifluoromethyl)phenyl)methyl)-1,2,3,4-tetrahydroquinolin-3-yl)urea] | < 500
13 | Cc1ccccc1Cc1cccc2c1N(C)C(=O)[C@H](NC(N)=O)C2 [Example 54, ((3R)-1-methyl-8-((2-methylphenyl)methyl)-2-oxo-1,2,3,4-tetrahydroquinolin-3-yl)urea] | < 500
14 | CN1C(=O)[C@H](NC(N)=O)Cc2cccc(Cc3ccccc3C(F)F)c21 [Example 55, ((3R)-8-((2-(difluoromethyl)phenyl)methyl)-1-methyl-2-oxo-1,2,3,4-tetrahydroquinolin-3-yl)urea] | < 500
15 | CN1C(=O)[C@H](NC(N)=O)Cc2ccc(F)c(Cc3cc(F)ccc3Cl)c21 [Example 56] | < 500
16 | CN1C(=O)[C@H](NC(N)=O)Cc2ccc(Cl)c(Cc3cc(F)ccc3Cl)c21 [Example 57, ((3R)-7-chloro-8-((2-chloro-5-fluorophenyl)methyl)-1-methyl-2-oxo-1,2,3,4-tetrahydroquinolin-3-yl)urea] | < 500
17 | Cc1ccc2c(c1Cc1ccccc1Cl)N(C)C(=O)[C@H](NC(N)=O)C2 [Example 58, ((3R)-8-((2-chlorophenyl)methyl)-1,7-dimethyl-2-oxo-1,2,3,4-tetrahydroquinolin-3-yl)urea] | < 500
18 | Cc1ccc2c(c1Cc1cc(F)ccc1Cl)N(C)C(=O)[C@H](NC(N)=O)C2 [Example 59, ((3R)-8-((2-chloro-5-fluorophenyl)methyl)-1,7-dimethyl-2-oxo-1,2,3,4-tetrahydroquinolin-3-yl)urea] | < 500

Row | Compound | IC50 [nM]
19 | CN1C(=O)[C@H](NC(N)=O)Cc2ccc(F)c(Cc3ccccc3Cl)c21 [Example 60, ((3R)-8-((2-chlorophenyl)methyl)-7-fluoro-1-methyl-2-oxo-1,2,3,4-tetrahydroquinolin-3-yl)urea] | < 500
20 | CN1C(=O)[C@H](NC(N)=O)Cc2ccc(F)c(Cc3ccccc3C(F)(F)F)c21 [Example 61, ((3R)-7-fluoro-1-methyl-2-oxo-8-((2-(trifluoromethyl)phenyl)methyl)-1,2,3,4-tetrahydroquinolin-3-yl)urea] | < 500
21 | CN1C(=O)[C@H](NC(N)=O)Cc2ccc(Cl)c(Cc3ccccc3Cl)c21 [Example 62, ((3R)-7-chloro-8-((2-chlorophenyl)methyl)-1-methyl-2-oxo-1,2,3,4-tetrahydroquinolin-3-yl)urea] | < 500
22 | Cc1ccccc1Cc1c(F)ccc2c1N(C)C(=O)[C@H](NC(N)=O)C2 [Example 63, ((3R)-7-fluoro-1-methyl-8-((2-methylphenyl)methyl)-2-oxo-1,2,3,4-tetrahydroquinolin-3-yl)urea] | < 500
23 | CN1C(=O)[C@H](NC(N)=O)Cc2ccc(Cl)c(Cc3ccccc3F)c21 [Example 64, ((3R)-7-chloro-8-((2-fluorophenyl)methyl)-1-methyl-2-oxo-1,2,3,4-tetrahydroquinolin-3-yl)urea] | 500 to 3000
24 | CN1C(=O)[C@H](NC(N)=O)Cc2ccc(Cl)c(Cc3cccc(F)c3)c21 [Example 65] | 500 to 3000
25 | Cc1ccc2c(c1Cc1cccc(F)c1)N(C)C(=O)[C@H](NC(N)=O)C2 [Example 67] | 3000 to 30000
26 | Cc1ccc(F)cc1Cc1cccc2c1N(C)C(=O)[C@H](NC(N)=O)C2 [Example 68, ((3R)-8-((5-fluoro-2-methylphenyl)methyl)-1-methyl-2-oxo-1,2,3,4-tetrahydroquinolin-3-yl)urea] | < 500
27 | CN1C(=O)[C@H](NC(N)=O)Cc2ccc(Cl)c(Oc3cc(F)ccc3F)c21 [Example 69, ((3R)-7-chloro-8-(2,5-difluorophenoxy)-1-methyl-2-oxo-1,2,3,4-tetrahydroquinolin-3-yl)urea] | < 500
28 | Cc1ccc2c(c1Oc1cc(F)ccc1C(F)F)N(C)C(=O)[C@H](NC(N)=O)C2 [Example 70, ((3R)-8-(2-(difluoromethyl)-5-fluorophenoxy)-1,7-dimethyl-2-oxo-1,2,3,4-tetrahydroquinolin-3-yl)urea] | < 500
29 | CN1C(=O)[C@H](NC(N)=O)Cc2ccc(CO)c(Oc3cc(F)ccc3Cl)c21 [Example 71, ((3R)-8-(2-chloro-5-fluorophenoxy)-7-(hydroxymethyl)-1-methyl-2-oxo-1,2,3,4-tetrahydroquinolin-3-yl)urea] | < 500
30 | CN1C(=O)[C@H](NC(N)=O)Cc2ccc(C(F)F)c(Oc3cc(F)ccc3Cl)c21 [Example 72, ((3R)-8-(2-chloro-5-fluorophenoxy)-7-(difluoromethyl)-1-methyl-2-oxo-1,2,3,4-tetrahydroquinolin-3-yl)urea] | < 500
31 | CN1C(=O)[C@H](NC(N)=O)Cc2ccc(CF)c(Oc3cc(F)ccc3Cl)c21 [Example 73, ((3R)-8-(2-chloro-5-fluorophenoxy)-7-(fluoromethyl)-1-methyl-2-oxo-1,2,3,4-tetrahydroquinolin-3-yl)urea] | < 500
32 | CN1C(=O)[C@H](NC(N)=O)Cc2ccc(C(F)(F)F)c(Oc3cc(F)ccc3Cl)c21 [Example 74, ((3R)-8-(2-chloro-5-fluorophenoxy)-1-methyl-2-oxo-7-(trifluoromethyl)-1,2,3,4-tetrahydroquinolin-3-yl)urea] | < 500
33 | CN1C(=O)[C@H](NC(N)=O)Cc2ccc(C(C)(F)F)c(Oc3cc(F)ccc3Cl)c21 [Example 75, ((3R)-8-(2-chloro-5-fluorophenoxy)-7-(1,1-difluoroethyl)-1-methyl-2-oxo-1,2,3,4-tetrahydroquinolin-3-yl)urea] | < 500
34 | CCc1ccc2c(c1Oc1cc(F)ccc1Cl)N(C)C(=O)[C@H](NC(N)=O)C2 [Example 76, ((3R)-8-(2-chloro-5-fluorophenoxy)-7-ethyl-1-methyl-2-oxo-1,2,3,4-tetrahydroquinolin-3-yl)urea] | < 500
35 | CC(c1ccccc1Cl)c1cccc2c1N(C)C(=O)[C@H](NC(N)=O)C2 (stereo partly drawn) [Example 77, ((3R)-8-(1-(2-chlorophenyl)ethyl)-1-methyl-2-oxo-1,2,3,4-tetrahydroquinolin-3-yl)urea] | < 500
